Source: PubChem BioAssay AID1871 (NMMLSC, 2009)
Activity calls are given as the source filed them. The rule behind the calls is not given here.

Molecular target: Regulator of G-protein signaling 7 (Homo sapiens) (UniProt P49802)
Experiment: potency of compounds altering RGS7-Galphao association – biochemical, multiplexed bead flow cytometry, dose response (AID 1871)
Details: bead-based flow cytometry, RGS7-Galphao binding; for Ki: measured here: Ki for RGS7-Galphao

Regulator of G-protein signaling 7 (Homo sapiens), sequence (P49802 whole entry, looked up): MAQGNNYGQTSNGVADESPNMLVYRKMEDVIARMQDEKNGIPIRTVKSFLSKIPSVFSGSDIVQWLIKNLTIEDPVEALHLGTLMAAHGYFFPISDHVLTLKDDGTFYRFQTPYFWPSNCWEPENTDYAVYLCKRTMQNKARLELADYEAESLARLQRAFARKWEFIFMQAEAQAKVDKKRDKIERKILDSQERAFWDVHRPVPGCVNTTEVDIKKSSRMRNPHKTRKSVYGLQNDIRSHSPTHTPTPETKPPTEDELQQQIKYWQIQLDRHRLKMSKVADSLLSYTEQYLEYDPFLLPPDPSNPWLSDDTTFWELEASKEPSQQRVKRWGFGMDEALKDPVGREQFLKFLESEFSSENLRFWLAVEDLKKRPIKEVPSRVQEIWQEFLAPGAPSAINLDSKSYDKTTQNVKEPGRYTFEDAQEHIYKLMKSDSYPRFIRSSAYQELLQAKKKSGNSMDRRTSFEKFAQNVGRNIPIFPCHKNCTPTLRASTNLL

Row | SMILES | Ki [µM] | EC50
1 | O=C(Cc1csc(N2CCOCC2)n1)N/N=C/c1ccc(O)c(O)c1O | 7.67 | 
2 | O=C1OCC2OC(O)C(O)C(O)C2OC(=O)c2cc(O)c(O)c(O)c2-c2c(O)c(O)c3oc(=O)c4c(c(O)c(O)c5oc(=O)c2c3c54)-c2c1cc(O)c(O)c2O (stereo not drawn) | 1.75 | 
3 | CN(C)[C@@H]1C(=O)C(C(=O)NCN2CCCC2)=C(O)[C@@]2(O)C(=O)C3=C(O)c4c(O)cccc4[C@@](C)(O)C3CC12 (stereo partly drawn) | 3.7 | 4.35 µM
4 | CCOC(=O)C1=C(C)NC(C)=C(C(=O)OCCNC(=O)c2cccnc2)C1c1cccc([N+](=O)[O-])c1 (stereo not drawn) |  | > 30 µM (inactive)
5 | CN=c1scc(C)n1/N=C/c1ccc(O)c(O)c1O | 8.75 | 
6 | O=c1c2ccccc2sn1-c1ccc(S(=O)(=O)N2CCCC2)cc1 | 0.53 | 
7 | COc1ccc(OC)c(CCNC(=O)Cn2sc3nc(C)cc(C)c3c2=O)c1 | 3.45 | 
8 | CC(=O)N(O)CCCCCNC(=O)CCC(=O)N(O)CCCCCNC(=O)CCC(=O)N(O)CCCCCN | 1.05 | 
9 | CN1CCN(C2=C(Cl)C(=O)C(c3cnc(N4CCCCC4)s3)=C(Cl)C2=O)CC1 | 0.15 | 
10 | O=C(O[C@@H]1OC2COC(=O)c3cc(O)c(O)c(O)c3-c3c(cc(O)c(O)c3O)C(=O)O[C@@H]([C@H]1O)[C@@H]2O)c1cc(O)c(O)c(O)c1 | 0.98 | 
11 | CCCNC(=O)Cn1sc2nc(C)cc(C)c2c1=O | 4.08 | 
12 | CCC(=O)NC(c1ccc(C)cc1)c1cc([N+](=O)[O-])c2cccnc2c1O (stereo not drawn) | 11.4 | 
13 | O=C1CCCC2=C1C(c1cccs1)n1ncnc1N2 (stereo not drawn) |  | > 30 µM (inactive)
14 | CC(C)Sc1nc2ccc(N3C(=O)C4CCCCC4C3=O)cc2s1 (stereo not drawn) |  | > 30 µM (inactive)
15 | CCN=c1scc(C)n1/N=C/c1ccc(O)c(O)c1O | 11.9 | 
16 | O=C1CCC(=O)N(O)CCCCCNC(=O)CCC(=O)N(O)CCCCCNC(=O)CCC(=O)N(O)CCCCCN1 | 2.01 | 
17 | CCOc1ccccc1-c1c2cc(O)c(=O)cc-2oc2cc(O)c(O)cc12 | 6.17 | 
18 | CCC(=O)NC1=C(Cl)C(=O)C(NC(=O)CC)=C(Cl)C1=O | 3.33 | 

Row | SMILES | Ki [µM] | EC50
19 | CCNc1ccc2noc3c2c1C(=O)c1ccccc1-3 | 22.2 | 
20 | CCOC(=O)N=Nc1c(O)n(C)c2ccccc12 |  | > 30 µM (inactive)
21 | COc1ccc(C2=CC(=O)C=CC2=O)cc1 | 8.17 | 
22 | Nc1c(C(=O)NCC2CCCO2)sc2nc3c(c(-c4ccco4)c12)CC/C3=C\c1ccco1 (stereo not drawn) | 3.12 | 
23 | O=C(OCC1O[C@@H](OC(=O)c2cc(O)c(O)c(O)c2)[C@@H](OC(=O)c2cc(O)c(O)c(O)c2)[C@@H](OC(=O)c2cc(O)c(O)c(O)c2)[C@@H]1OC(=O)c1cc(O)c(O)c(O)c1)c1cc(O)c(O)c(O)c1 (stereo partly drawn) | 0.37 | 
24 | CN(C)c1ncc(C2=C(Cl)C(=O)C(N3CCCC3)=C(Cl)C2=O)s1 | 1.15 | 
25 | CCOC(=O)/C(C(=O)Nc1ccccc1Cl)=C1/NC(C)(C)Cc2ccccc21 |  | > 30 µM (inactive)
26 | C/C(=N/NC(=O)c1cc(O)c(O)c(O)c1)c1ccc([N+](=O)[O-])cc1 | 18.1 | 
27 | O=c1[nH]c(=S)n(Cc2ccco2)c(O)c1C=NCc1cccs1 |  | > 30 µM (inactive)
28 | O=C(COc1ccccc1C(=O)N/N=C\c1ccc(O)c(O)c1)N/N=C/c1ccc(O)c(O)c1 | 1.94 | 
29 | O=C(O)C[C@@H]1C(=O)O[C@@H]2C(COC(=O)c3cc(O)c(O)c(O)c3)O[C@@H](OC(=O)c3cc(O)c(O)c(O)c3)[C@@H](OC(=O)c3cc(O)c(O)c4c3[C@H]1[C@H](O)C(=O)O4)[C@H]2OC(=O)c1cc(O)c(O)c(O)c1 (stereo partly drawn) | 0.51 | 
30 | CCN(CC)S(=O)(=O)c1cccc(C(=O)N/N=C/c2ccc(O)c(O)c2O)c1 | 3.3 | 
31 | NS(=O)(=O)c1ccc(N/N=C/c2ccc(O)c(O)c2O)c([N+](=O)[O-])c1 | 1.66 | 1.95 µM
32 | CC1(C)OC(=O)C(=Cc2ccc(-c3ccc(S(N)(=O)=O)cc3)o2)C(=O)O1 | 4.87 | 
33 | O=C1C(Cl)=C(N2CCCCC2)C(=O)C(Cl)=C1c1cnc(N2CCCCC2)s1 | 0.71 | 
34 | COc1ccc(Br)cc1/C=N/Nc1cccc(C(=O)O)c1 |  | > 30 µM (inactive)
35 | COCCCNC(=O)c1ccc2c3c(onc13)-c1ccccc1C2=O | 1.48 | 
36 | O=[N+]([O-])c1ccc(Sc2cccc[n+]2[O-])c2nonc12 | 4.06 | 
